# Laboratory results: patent US10189816B2, “Substituted pyridines as inhibitors of human immunodeficiency virus replication” (priority 2015, dated 2019)
# System: NL-RLuc virus
# Assay: Inhibition of HIV replication (NL-RLuc reporter virus in MT-2 cells, luciferase readout)
# Assay type: cell-based
# Details: Human immunodeficiency virus 1, MT2, 120 h, read-out: Activity
# Procedure, shortened: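 MT-2 cells infected with NL4-3-derived NL-RLuc reporter virus (Renilla luciferase replacing part of nef) with serial compound dilutions, RPMI 1640 + 10% FBS; 5 days. Growth by luciferase; EC50 from median effect equation, ≥2 experiments.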
row,SMILES,EC50 [µM]
1,"Cc1nc(C)c([C@H](OC(C)(C)C)C(=O)O)c(N2CCC(C)(C)CC2)c1-c1ccc2c(c1)CCN(Cc1cccc(C(C)(C)C)c1)C2 [Compound 81, (S)-2-(tert-butoxy)-2-(5-(2-(3-(tert-butyl)benzyl)-1,2,3,4-tetrahydroisoquinolin-6-yl)-4-(4,4-dimethylpiperidin-1-yl)-2,6-dimethylpyridin-3-yl)acetic acid]",< 0.1
2,"Cc1nc(C)c([C@H](OC(C)(C)C)C(=O)O)c(N2CCC(C)(C)CC2)c1-c1ccc2c(c1)CCN(Cc1cccc(F)c1C)C2 [Compound 82, (S)-2-(tert-butoxy)-2-(4-(4,4-dimethylpiperidin-1-yl)-5-(2-(3-fluoro-2-methylbenzyl)-1,2,3,4-tetrahydroisoquinolin-6-yl)-2,6-dimethylpyridin-3-yl)acetic acid]",< 0.1
3,"COc1cc(F)c(CN2CCc3cc(-c4c(C)nc(C)c([C@H](OC(C)(C)C)C(=O)O)c4N4CCC(C)(C)CC4)ccc3C2)cc1F [Compound 83, (S)-2-(tert-butoxy)-2-(5-(2-(2,5-difluoro-4-methoxybenzyl)-1,2,3,4-tetrahydroisoquinolin-6-yl)-4-(4,4-dimethylpiperidin-1-yl)-2,6-dimethylpyridin-3-yl)acetic acid]",< 0.1
4,"Cc1nc(C)c([C@H](OC(C)(C)C)C(=O)O)c(N2CCC(C)(C)CC2)c1-c1ccc2c(c1)CCN(Cc1cc(Cl)cc(Cl)c1OCc1ccccc1)C2 [Compound 85, (S)-2-(5-(2-(2-(benzyloxy)-3,5-dichlorobenzyl)-1,2,3,4-tetrahydroisoquinolin-6-yl)-4-(4,4-dimethylpiperidin-1-yl)-2,6-dimethylpyridin-3-yl)-2-(tert-butoxy)acetic acid]",< 0.1
5,"COc1cc(F)c(F)cc1CN1CCc2cc(-c3c(C)nc(C)c([C@H](OC(C)(C)C)C(=O)O)c3N3CCC(C)(C)CC3)ccc2C1 [Compound 86, (S)-2-(tert-butoxy)-2-(5-(2-(4,5-difluoro-2-methoxybenzyl)-1,2,3,4-tetrahydroisoquinolin-6-yl)-4-(4,4-dimethylpiperidin-1-yl)-2,6-dimethylpyridin-3-yl)acetic acid]",< 0.1
6,"COc1ccc(F)c(F)c1CN1CCc2cc(-c3c(C)nc(C)c([C@H](OC(C)(C)C)C(=O)O)c3N3CCC(C)(C)CC3)ccc2C1 [Compound 87, (S)-2-(tert-butoxy)-2-(5-(2-(2,3-difluoro-6-methoxybenzyl)-1,2,3,4-tetrahydroisoquinolin-6-yl)-4-(4,4-dimethylpiperidin-1-yl)-2,6-dimethylpyridin-3-yl)acetic acid]",< 0.1
7,"Cc1nc(C)c([C@H](OC(C)(C)C)C(=O)O)c(N2CCC(C)(C)CC2)c1-c1ccc2c(c1)CCN(Cc1ccccc1OCCO)C2 [Compound 88, (S)-2-(tert-butoxy)-2-(4-(4,4-dimethylpiperidin-1-yl)-5-(2-(2-(2-hydroxyethoxy)benzyl)-1,2,3,4-tetrahydroisoquinolin-6-yl)-2,6-dimethylpyridin-3-yl)acetic acid]",< 0.1
8,"CCOc1cc(Cl)cc(Cl)c1CN1CCc2cc(-c3c(C)nc(C)c([C@H](OC(C)(C)C)C(=O)O)c3N3CCC(C)(C)CC3)ccc2C1 [Compound 90, (S)-2-(tert-butoxy)-2-(5-(2-(2,4-dichloro-6-ethoxybenzyl)-1,2,3,4-tetrahydroisoquinolin-6-yl)-4-(4,4-dimethylpiperidin-1-yl)-2,6-dimethylpyridin-3-yl)acetic acid]",< 0.1
9,"COc1ccc(CN2CCc3cc(-c4c(C)nc(C)c([C@H](OC(C)(C)C)C(=O)O)c4N4CCC(C)(C)CC4)ccc3C2)c(Cl)c1Cl [Compound 91, (S)-2-(tert-butoxy)-2-(5-(2-(2,3-dichloro-4-methoxybenzyl)-1,2,3,4-tetrahydroisoquinolin-6-yl)-4-(4,4-dimethylpiperidin-1-yl)-2,6-dimethylpyridin-3-yl)acetic acid]",< 0.1
10,"COc1ccc(F)c(CN2CCc3cc(-c4c(C)nc(C)c([C@H](OC(C)(C)C)C(=O)O)c4N4CCC(C)(C)CC4)ccc3C2)c1F [Compound 92, (S)-2-(tert-butoxy)-2-(5-(2-(2,6-difluoro-3-methoxybenzyl)-1,2,3,4-tetrahydroisoquinolin-6-yl)-4-(4,4-dimethylpiperidin-1-yl)-2,6-dimethylpyridin-3-yl)acetic acid]",< 0.1
11,"COc1cc(CN2CCc3cc(-c4c(C)nc(C)c([C@H](OC(C)(C)C)C(=O)O)c4N4CCC(C)(C)CC4)ccc3C2)c(F)cc1Cl [Compound 93, (S)-2-(tert-butoxy)-2-(5-(2-(4-chloro-2-fluoro-5-methoxybenzyl)-1,2,3,4-tetrahydroisoquinolin-6-yl)-4-(4,4-dimethylpiperidin-1-yl)-2,6-dimethylpyridin-3-yl)acetic acid]",< 0.1
12,"COc1cc(CN2CCc3cc(-c4c(C)nc(C)c([C@H](OC(C)(C)C)C(=O)O)c4N4CCC(C)(C)CC4)ccc3C2)c(F)cc1F [Compound 94, (S)-2-(tert-butoxy)-2-(5-(2-(2,4-difluoro-5-methoxybenzyl)-1,2,3,4-tetrahydroisoquinolin-6-yl)-4-(4,4-dimethylpiperidin-1-yl)-2,6-dimethylpyridin-3-yl)acetic acid]",< 0.1
13,"COc1c(F)cc(CN2CCc3cc(-c4c(C)nc(C)c([C@H](OC(C)(C)C)C(=O)O)c4N4CCC(C)(C)CC4)ccc3C2)cc1F [Compound 95, (S)-2-(tert-butoxy)-2-(5-(2-(3,5-difluoro-4-methoxybenzyl)-1,2,3,4-tetrahydroisoquinolin-6-yl)-4-(4,4-dimethylpiperidin-1-yl)-2,6-dimethylpyridin-3-yl)acetic acid]",< 0.1
14,"Cc1nc(C)c([C@H](OC(C)(C)C)C(=O)O)c(N2CCC(C)(C)CC2)c1-c1ccc2c(c1)CCN(Cc1cc(F)cc(F)c1F)C2 [Compound 96, (S)-2-(tert-butoxy)-2-(4-(4,4-dimethylpiperidin-1-yl)-2,6-dimethyl-5-(2-(2,3,5-trifluorobenzyl)-1,2,3,4-tetrahydroisoquinolin-6-yl)pyridin-3-yl)acetic acid]",< 0.1
15,"COc1ccc(CN2CCc3cc(-c4c(C)nc(C)c([C@H](OC(C)(C)C)C(=O)O)c4N4CCC(C)(C)CC4)ccc3C2)cc1F [Compound 97, (S)-2-(tert-butoxy)-2-(4-(4,4-dimethylpiperidin-1-yl)-5-(2-(3-fluoro-4-methoxybenzyl)-1,2,3,4-tetrahydroisoquinolin-6-yl)-2,6-dimethylpyridin-3-yl)acetic acid]",< 0.1
16,"COc1c(CN2CCc3cc(-c4c(C)nc(C)c([C@H](OC(C)(C)C)C(=O)O)c4N4CCC(C)(C)CC4)ccc3C2)cccc1C(F)(F)F [Compound 98, (S)-2-(tert-butoxy)-2-(4-(4,4-dimethylpiperidin-1-yl)-5-(2-(2-methoxy-3-(trifluoromethyl)benzyl)-1,2,3,4-tetrahydroisoquinolin-6-yl)-2,6-dimethylpyridin-3-yl)acetic acid]",< 0.1
17,"COc1ccc(Cl)cc1CN1CCc2cc(-c3c(C)nc(C)c([C@H](OC(C)(C)C)C(=O)O)c3N3CCC(C)(C)CC3)ccc2C1 [Compound 99, (S)-2-(tert-butoxy)-2-(5-(2-(5-chloro-2-methoxybenzyl)-1,2,3,4-tetrahydroisoquinolin-6-yl)-4-(4,4-dimethylpiperidin-1-yl)-2,6-dimethylpyridin-3-yl)acetic acid]",< 0.1
18,"COc1cc(Cl)cc(CN2CCc3cc(-c4c(C)nc(C)c([C@H](OC(C)(C)C)C(=O)O)c4N4CCC(C)(C)CC4)ccc3C2)c1 [Compound 100, (S)-2-(tert-butoxy)-2-(5-(2-(3-chloro-5-methoxybenzyl)-1,2,3,4-tetrahydroisoquinolin-6-yl)-4-(4,4-dimethylpiperidin-1-yl)-2,6-dimethylpyridin-3-yl)acetic acid]",< 0.1
19,"COc1cc(CN2CCc3cc(-c4c(C)nc(C)c([C@H](OC(C)(C)C)C(=O)O)c4N4CCC(C)(C)CC4)ccc3C2)ccc1F [Compound 101, (S)-2-(tert-butoxy)-2-(4-(4,4-dimethylpiperidin-1-yl)-5-(2-(4-fluoro-3-methoxybenzyl)-1,2,3,4-tetrahydroisoquinolin-6-yl)-2,6-dimethylpyridin-3-yl)acetic acid]",< 0.1
20,"Cc1nc(C)c([C@H](OC(C)(C)C)C(=O)O)c(N2CCC(C)(C)CC2)c1-c1ccc2c(c1)CCN(Cc1ccc(OC(F)(F)F)cc1)C2 [Compound 102, (S)-2-(tert-butoxy)-2-(4-(4,4-dimethylpiperidin-1-yl)-2,6-dimethyl-5-(2-(4-(trifluoromethoxy)benzyl)-1,2,3,4-tetrahydroisoquinolin-6-yl)pyridin-3-yl)acetic acid]",< 0.1
21,"CCOc1cccc(CN2CCc3cc(-c4c(C)nc(C)c([C@H](OC(C)(C)C)C(=O)O)c4N4CCC(C)(C)CC4)ccc3C2)c1 [Compound 103, (S)-2-(tert-butoxy)-2-(4-(4,4-dimethylpiperidin-1-yl)-5-(2-(3-ethoxybenzyl)-1,2,3,4-tetrahydroisoquinolin-6-yl)-2,6-dimethylpyridin-3-yl)acetic acid]",< 0.1
22,"Cc1nc(C)c([C@H](OC(C)(C)C)C(=O)O)c(N2CCC(C)(C)CC2)c1-c1ccc2c(c1)CCN(Cc1ccc(OC(F)(F)F)c(Cl)c1)C2 [Compound 104, (S)-2-(tert-butoxy)-2-(5-(2-(3-chloro-4-(trifluoromethoxy)benzyl)-1,2,3,4-tetrahydroisoquinolin-6-yl)-4-(4,4-dimethylpiperidin-1-yl)-2,6-dimethylpyridin-3-yl)acetic acid]",< 0.1
23,"Cc1nc(C)c([C@H](OC(C)(C)C)C(=O)O)c(N2CCC(C)(C)CC2)c1-c1ccc2c(c1)CCN(Cc1ccc(OC(F)F)cc1F)C2 [Compound 105, (S)-2-(tert-butoxy)-2-(5-(2-(4-(difluoromethoxy)-2-fluorobenzyl)-1,2,3,4-tetrahydroisoquinolin-6-yl)-4-(4,4-dimethylpiperidin-1-yl)-2,6-dimethylpyridin-3-yl)acetic acid]",< 0.1

# Same assay, conditions: Human immunodeficiency virus 1, MT2, 120 h, read-out: EC50 μM
row,SMILES,EC50 [µM]
1,"Cc1nc(C)c([C@H](OC(C)(C)C)C(=O)O)c(N2CCC(C)(C)CC2)c1-c1ccc2c(c1)CCN(Cc1ccccc1OCCO)C2 [Compound 88, (S)-2-(tert-butoxy)-2-(4-(4,4-dimethylpiperidin-1-yl)-5-(2-(2-(2-hydroxyethoxy)benzyl)-1,2,3,4-tetrahydroisoquinolin-6-yl)-2,6-dimethylpyridin-3-yl)acetic acid]",0.012
2,"Cc1nc(C)c([C@H](OC(C)(C)C)C(=O)O)c(N2CCC(C)(C)CC2)c1-c1ccc2c(c1)CCN(Cc1cc(F)cc(F)c1F)C2 [Compound 96, (S)-2-(tert-butoxy)-2-(4-(4,4-dimethylpiperidin-1-yl)-2,6-dimethyl-5-(2-(2,3,5-trifluorobenzyl)-1,2,3,4-tetrahydroisoquinolin-6-yl)pyridin-3-yl)acetic acid]",0.003
3,"CCOc1cccc(CN2CCc3cc(-c4c(C)nc(C)c([C@H](OC(C)(C)C)C(=O)O)c4N4CCC(C)(C)CC4)ccc3C2)c1 [Compound 103, (S)-2-(tert-butoxy)-2-(4-(4,4-dimethylpiperidin-1-yl)-5-(2-(3-ethoxybenzyl)-1,2,3,4-tetrahydroisoquinolin-6-yl)-2,6-dimethylpyridin-3-yl)acetic acid]",0.012
